Reference: patent publication US8129371B2, “Thienopyrimidine and pyrazolopyrimidine compounds and their use as mTOR kinase and PI3 kinase inhibitors” (Wyeth LLC, priority 2007, dated 2012)
Where two headings read alike, the source gives them in different places.

Legend:
prostate line LNCap = assay: In vitro cell culture growth assay (MTS), LNCap; assay type: cell-based; conditions: Homo sapiens, LNCaP, 72 h, LNCap cells, three days after drug treatment
Outline: (§1)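 Inhibitors were added one day after plating, and viable cells were measured 3 days later by MTS conversion (absorbance 490 nm).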

breast line MDA468 = assay: In vitro cell culture growth assay (MTS), MDA468; assay type: cell-based; conditions: Homo sapiens, 72 h, MDA468 cells, three days after drug treatment
Outline: as §1

PI3K [1] = target: T1, PI3K (Homo sapiens, UniProt P42336); assay: Fluorescence polarization assay for PI3K; assay type: biochemical; conditions: read-out: PI3 Kinase α IC50
T1 construct: PI3 Kinase α IC50; other: PI3 Kinase α; other: PI3 Kinase α isoform, fluorescence polarization
T1 sequence (P42336 whole entry, canonical isoform): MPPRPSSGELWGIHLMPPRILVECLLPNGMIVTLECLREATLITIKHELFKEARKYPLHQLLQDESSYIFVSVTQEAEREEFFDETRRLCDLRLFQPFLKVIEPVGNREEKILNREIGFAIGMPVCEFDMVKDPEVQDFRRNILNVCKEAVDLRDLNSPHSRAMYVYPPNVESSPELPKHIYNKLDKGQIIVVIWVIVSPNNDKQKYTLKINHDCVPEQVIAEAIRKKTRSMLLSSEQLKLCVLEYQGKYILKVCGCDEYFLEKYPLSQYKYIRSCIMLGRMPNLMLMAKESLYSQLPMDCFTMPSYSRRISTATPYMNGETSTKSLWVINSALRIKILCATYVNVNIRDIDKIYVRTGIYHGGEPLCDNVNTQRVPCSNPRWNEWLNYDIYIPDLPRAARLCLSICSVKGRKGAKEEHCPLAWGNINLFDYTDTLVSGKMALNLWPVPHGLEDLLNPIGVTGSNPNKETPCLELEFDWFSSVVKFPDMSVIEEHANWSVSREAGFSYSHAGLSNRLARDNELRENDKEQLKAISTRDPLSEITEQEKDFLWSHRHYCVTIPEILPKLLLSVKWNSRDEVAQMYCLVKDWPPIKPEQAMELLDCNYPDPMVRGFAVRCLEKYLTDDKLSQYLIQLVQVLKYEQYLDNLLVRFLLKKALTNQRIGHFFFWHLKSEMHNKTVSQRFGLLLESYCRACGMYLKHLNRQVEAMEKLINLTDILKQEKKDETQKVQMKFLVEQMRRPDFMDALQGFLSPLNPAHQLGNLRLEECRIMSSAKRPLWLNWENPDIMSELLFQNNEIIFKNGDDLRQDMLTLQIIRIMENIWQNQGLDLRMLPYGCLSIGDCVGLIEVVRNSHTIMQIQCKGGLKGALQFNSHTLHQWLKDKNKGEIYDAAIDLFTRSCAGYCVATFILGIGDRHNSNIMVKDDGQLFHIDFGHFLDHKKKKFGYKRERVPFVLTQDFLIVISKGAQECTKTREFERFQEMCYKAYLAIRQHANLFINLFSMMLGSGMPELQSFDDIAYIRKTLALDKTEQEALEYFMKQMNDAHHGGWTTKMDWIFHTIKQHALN
Outline: (§2)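 PI3K was preincubated with compound (final DMSO 1%), and the reaction was started with PIP2/ATP substrate and run 30–60 min. It was stopped with a detector mix giving 10 nM red probe and 70 nM GST-GRP.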

PI3K [2] = target: T2, PI3K (Homo sapiens, UniProt P48736); assay: Fluorescence polarization assay for PI3K; assay type: biochemical; conditions: read-out: PI3 Kinase γ IC50
T2 construct: PI3 Kinase γ IC50; other: PI3 Kinase γ; other: PI3 Kinase γ isoform, fluorescence polarization
T2 sequence (P48736 whole entry, canonical isoform): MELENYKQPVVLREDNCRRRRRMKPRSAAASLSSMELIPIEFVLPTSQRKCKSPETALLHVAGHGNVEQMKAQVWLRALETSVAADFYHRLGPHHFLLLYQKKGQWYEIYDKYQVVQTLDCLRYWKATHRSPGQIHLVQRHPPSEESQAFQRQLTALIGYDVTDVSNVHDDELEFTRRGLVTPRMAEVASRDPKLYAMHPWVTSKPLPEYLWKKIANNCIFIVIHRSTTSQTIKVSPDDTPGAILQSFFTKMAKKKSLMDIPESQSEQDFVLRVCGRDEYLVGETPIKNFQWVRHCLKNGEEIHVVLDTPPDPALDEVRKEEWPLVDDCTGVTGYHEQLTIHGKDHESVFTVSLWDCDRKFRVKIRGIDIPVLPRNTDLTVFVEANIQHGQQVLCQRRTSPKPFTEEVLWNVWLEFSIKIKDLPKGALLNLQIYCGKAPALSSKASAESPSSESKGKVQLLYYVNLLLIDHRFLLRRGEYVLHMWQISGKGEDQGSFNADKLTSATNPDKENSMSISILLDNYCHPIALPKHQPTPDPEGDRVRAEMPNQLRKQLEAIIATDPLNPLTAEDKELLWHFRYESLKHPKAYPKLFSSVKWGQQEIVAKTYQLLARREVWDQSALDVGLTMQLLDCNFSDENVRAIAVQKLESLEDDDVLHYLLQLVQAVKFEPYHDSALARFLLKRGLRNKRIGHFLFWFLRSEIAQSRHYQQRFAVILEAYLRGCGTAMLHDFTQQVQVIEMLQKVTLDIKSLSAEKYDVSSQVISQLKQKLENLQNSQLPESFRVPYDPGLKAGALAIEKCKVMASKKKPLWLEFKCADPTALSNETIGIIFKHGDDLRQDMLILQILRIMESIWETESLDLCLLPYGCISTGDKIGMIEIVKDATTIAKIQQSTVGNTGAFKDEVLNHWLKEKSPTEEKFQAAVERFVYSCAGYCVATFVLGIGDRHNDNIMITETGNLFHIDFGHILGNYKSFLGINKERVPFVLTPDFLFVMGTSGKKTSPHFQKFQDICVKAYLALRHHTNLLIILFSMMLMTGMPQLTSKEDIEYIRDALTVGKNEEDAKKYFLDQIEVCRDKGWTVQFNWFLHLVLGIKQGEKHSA
Outline: as §2

Human mTOR (FLAG-TOR) = target: T3, Human mTOR (FLAG-TOR) (Homo sapiens, UniProt P42345); assay: Human mTOR kinase assay with purified enzyme, DELFIA format; assay type: biochemical
T3 construct: FLAG
Outline: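 Purified FLAG-mTOR in HEPES pH 7.4 buffer with 10 mM MnCl2 was preincubated with inhibitor and reacted 2 h at room temperature with His6-S6K substrate, then stopped with EDTA/EGTA. Phospho-T389 S6K detected by DELFIA with Eu-labelled antibody (40 ng/mL) after plate capture; inhibition computed from signal.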

[3] = PI3 Kinase α isoform, fluorescence polarization
[4] = PI3 Kinase γ isoform, fluorescence polarization
[5] = purified human mTOR enzyme, DELFIA format

Row | SMILES | IC50 (prostate line LNCap) [nM] | IC50 (PI3K [1]; PI3 Kinase α) [nM] | IC50 (PI3K [2]; PI3 Kinase γ) [nM] | IC50 (Human mTOR (FLAG-TOR)) [nM] | IC50 (PI3K [1]; [3]) [nM] | IC50 (PI3K [2]; [4]) [nM] | IC50 (Human mTOR (FLAG-TOR); [5]) [nM] | IC50 (breast line MDA468) [nM]
1 | CNC(=O)Nc1ccc(-c2nc(N3CC4CCC(C3)O4)c3cnn(C(C)C)c3n2)cc1 [Example 139, 1-{4-[1-isopropyl-4-(8-oxa-3-azabicyclo[3.2.1]oct-3-yl)-1H-pyrazolo[3,4-d]pyrimidin-6-yl]phenyl}-3-methylurea] | 5 | 234 | 6170 | 0.115 |  |  |  | 50
2 | CCn1ncc2c(N3CC4CCC(C3)O4)nc(-c3ccc(NC(=O)NC4CCN(C)CC4)cc3)nc21 [Example 228, 1-{4-[1-ethyl-4-(8-oxa-3-azabicyclo[3.2.1]oct-3-yl)-1H-pyrazolo[3,4-d]pyrimidin-6-yl]phenyl}-3-(1-methylpiperidin-4-yl)urea] | 490 | 4500 | > 10000 | 31.5 |  |  |  | 900
3 | COC(=O)Nc1ccc(-c2nc(N3CC4CCC(C3)O4)c3cnn(C4CCC5(CC4)OCCO5)c3n2)cc1 [Example 377, methyl {4-[1-(1,4-dioxaspiro[4.5]dec-8-yl)-4-(8-oxa-3-azabicyclo[3.2.1]oct-3-yl)-1H-pyrazolo[3,4-d]pyrimidin-6-yl]phenyl}carbamate] | 140 |  |  |  | 7360 | > 10000 | 2.5 | 1200
4 | Nc1ccc(-c2nc(N3CC4CCC(C3)O4)c3sccc3n2)cn1 [Example 420, 5-[4-(8-oxa-3-azabicyclo[3.2.1]oct-3-yl)thieno[3,2-d]pyrimidin-2-yl]pyridin-2-amine] | 1250 |  |  |  | 1770 | > 10000 | 32 | 4800
5 | CCn1ncc2c(N3CC4CCC(C3)O4)nc(-c3ccc(NC(=O)NC4CCCCC4)cc3)nc21 [Example 227, 1-cyclohexyl-3-{4-[1-ethyl-4-(8-oxa-3-azabicyclo[3.2.1]oct-3-yl)-1H-pyrazolo[3,4-d]pyrimidin-6-yl]phenyl}urea] | 1200 | 5940 | > 10000 | 15 |  |  |  | 3200
6 | O=C(Nc1ccc(-c2nc(N3C[C@H]4C[C@@H]3CO4)c3cnn(CC(F)(F)F)c3n2)cc1)NC1CC1 [Example 342, 1-cyclopropyl-3-(4-{4-[(1R,4R)-2-oxa-5-azabicyclo[2.2.1]hept-5-yl]-1-(2,2,2-trifluoroethyl)-1H-pyrazolo[3,4-d]pyrimidin-6-yl}phenyl)urea] | 670 |  |  |  | 9500 | > 10000 | 53 | 1000
7 | CCn1ncc2c(N3CC4CCC(C3)O4)nc(-c3ccc(NC(=O)NC4CC4)cc3)nc21 [Example 43, 1-cyclopropyl-3-{4-[1-ethyl-4-(8-oxa-3-azabicyclo[3.2.1]oct-3-yl)-1H-pyrazolo[3,4-d]pyrimidin-6-yl]phenyl}urea] | 52 | 1760 | > 10000 | 0.4 |  |  |  | 250
8 | CN1CCN(CCNC(=O)Nc2ccc(-c3nc(N4CC5CCC(C4)O5)c4cnn(C5CCC6(CC5)OCCO6)c4n3)cc2)CC1 [Example 134, 1-{4-[1-(1,4-dioxaspiro[4.5]dec-8-yl)-4-(8-oxa-3-azabicyclo[3.2.1]oct-3-yl)-1H-pyrazolo[3,4-d]pyrimidin-6-yl]phenyl}-3-[2-(4-methylpiperazin-1-yl)ethyl]urea] | 390 | 2440 | > 10000 | 17.5 |  |  |  | 4000
9 | CN(C)CCn1ncc2c(N3CC4CCC(C3)O4)nc(-c3ccc(NC(=O)OCCO)cc3)nc21 [Example 158, 2-hydroxyethyl (4-{1-[2-(dimethylamino)ethyl]-4-(8-oxa-3-azabicyclo[3.2.1]oct-3-yl)-1H-pyrazolo[3,4-d]pyrimidin-6-yl}phenyl)carbamate] | 680 | 3520 | > 10000 | 27 |  |  |  | 5000
10 | CN(C)CCNC(=O)Nc1ccc(-c2nc(N3CC4CCC(C3)O4)c3cnn(C)c3n2)cc1 [Example 58, 1-[2-(dimethylamino)ethyl]-3-{4-[1-methyl-4-(8-oxa-3-azabicyclo[3.2.1]oct-3-yl)-1H-pyrazolo[3,4-d]pyrimidin-6-yl]phenyl}urea] | 700 | 307 | 1120 | 99 |  |  |  | 2800
11 | c1cncc(CN2CCC(n3ncc4c(N5CC6CCC(C5)O6)nc(-c5ccc6[nH]ccc6c5)nc43)CC2)c1 [Example 394, 6-(1H-indol-5-yl)-4-(8-oxa-3-azabicyclo[3.2.1]oct-3-yl)-1-[1-(pyridin-3-ylmethyl)piperidin-4-yl]-1H-pyrazolo[3,4-d]pyrimidine] | 320 |  |  |  | 2920 | 9500 | 14.5 | 2000
12 | COC(=O)N1CCC(n2ncc3c(N4C5CCC4COC5)nc(-c4ccc(NC(=O)Nc5ccc(N6CCNCC6)cc5)cc4)nc32)CC1 [Example 364, methyl 4-[4-(3-oxa-8-azabicyclo[3.2.1]oct-8-yl)-6-(4-{[(4-piperazin-1-ylphenyl)carbamoyl]amino}phenyl)-1H-pyrazolo[3,4-d]pyrimidin-1-yl]piperidine-1-carboxylate] | 1 |  |  |  | 1230 | 947 | 0.44 | 4
13 | COC(=O)Nc1ccc(-c2nc(N3CC4CCC(C3)O4)c3cnn(CCN(C)C)c3n2)cc1 [Example 154, methyl (4-{1-[2-(dimethylamino)ethyl]-4-(8-oxa-3-azabicyclo[3.2.1]oct-3-yl)-1H-pyrazolo[3,4-d]pyrimidin-6-yl}phenyl)carbamate] | 2900 | 4280 | > 10000 | 85 |  |  |  | 19000
14 | CCn1ncc2c(N3CC4CCC(C3)O4)nc(-c3ccc(NC(=O)NCCO)cc3)nc21 [Example 44, 1-{4-[1-ethyl-4-(8-oxa-3-azabicyclo[3.2.1]oct-3-yl)-1H-pyrazolo[3,4-d]pyrimidin-6-yl]phenyl}-3-(2-hydroxyethyl)urea] | 220 | 416 | 12000 | 0.34 |  |  |  | 370

Now from value to molecule, other results behind:

Row | IC50 (prostate line LNCap) [nM] | IC50 (PI3K [1]; PI3 Kinase α) [nM] | IC50 (PI3K [2]; PI3 Kinase γ) [nM] | IC50 (Human mTOR (FLAG-TOR)) [nM] | IC50 (PI3K [1]; [3]) [nM] | IC50 (PI3K [2]; [4]) [nM] | IC50 (Human mTOR (FLAG-TOR); [5]) [nM] | SMILES | IC50 (breast line MDA468) [nM]
15 | < 1 | 60 | 524 | 0.105 |  |  |  | Cn1ncc2c(N3CC4CCC(C3)O4)nc(-c3ccc(NC(=O)Nc4ccc(CCO)cc4)cc3)nc21 [Example 232, 1-[4-(2-hydroxyethyl)phenyl]-3-{4-[1-methyl-4-(8-oxa-3-azabicyclo[3.2.1]oct-3-yl)-1H-pyrazolo[3,4-d]pyrimidin-6-yl]phenyl}urea] | 2
16 | 2 |  |  |  | 1170 | 7440 | 0.375 | CNC(=O)Nc1ccc(-c2nc(N3CC4CCC(C3)O4)c3cnn([C@H]4CC[C@H](OC)CC4)c3n2)cc1 (relative stereo) [Example 386, 1-{4-[1-(trans-4-methoxycyclohexyl)-4-(8-oxa-3-azabicyclo[3.2.1]oct-3-yl)-1H-pyrazolo[3,4-d]pyrimidin-6-yl]phenyl}-3-methylurea] | 37
17 | 3 | 155 | 2600 | 0.745 |  |  |  | CN(C)CCOc1ccc(NC(=O)Nc2ccc(-c3nc(N4CC5CCC(C4)O5)c4cnn(CCC#N)c4n3)cc2)cc1 [Example 224, 1-{4-[1-(2-cyanoethyl)-4-(8-oxa-3-azabicyclo[3.2.1]oct-3-yl)-1H-pyrazolo[3,4-d]pyrimidin-6-yl]phenyl}-3-{4-[2-(dimethylamino)ethoxy]phenyl}urea] | 12
18 | 4 | 2280 | > 10000 | 0.31 |  |  |  | CCNC(=O)Nc1ccc(-c2nc(N3CC4CCC(C3)O4)c3cnn(C4CCN(Cc5cccnc5)CC4)c3n2)cc1 [Example 15, 1-ethyl-3-(4-{4-(8-oxa-3-azabicyclo[3.2.1]oct-3-yl)-1-[1-(pyridin-3-ylmethyl)piperidin-4-yl]-1H-pyrazolo[3,4-d]pyrimidin-6-yl}phenyl)urea] | 85
19 | 1 | 143 | 2610 | 0.405 |  |  |  | CN1CCN(c2ccc(NC(=O)Nc3ccc(-c4nc(N5CC6CCC(C5)O6)c5cnn(CCC#N)c5n4)cc3)cn2)CC1 [Example 222, 1-{4-[1-(2-cyanoethyl)-4-(8-oxa-3-azabicyclo[3.2.1]oct-3-yl)-1H-pyrazolo[3,4-d]pyrimidin-6-yl]phenyl}-3-[6-(4-methylpiperazin-1-yl)pyridin-3-yl]urea] | 8
20 | < 1 | 220 | 3020 | 0.775 |  |  |  | O=C(Nc1ccc(CO)cc1)Nc1ccc(-c2nc(N3C[C@@H]4C[C@H]3CO4)c3cnn(CC(F)(F)F)c3n2)cc1 [Example 294, 1-[4-(hydroxymethyl)phenyl]-3-(4-{4-[(1S,4S)-2-oxa-5-azabicyclo[2.2.1]hept-5-yl]-1-(2,2,2-trifluoroethyl)-1H-pyrazolo[3,4-d]pyrimidin-6-yl}phenyl)urea] | 1
